Results published in US9597347B2, “Compositions for treating obesity and insulin resistance disorders” (President and Fellows of Harvard College, priority 2003, dated 2017).
Entries after “also recorded” stand apart in the source; their conditions may differ.

Columns and labels:
C. elegans worms = test: Nile Red fat staining in C. elegans fed RNAi bacteria; type: in vivo
Procedure: The role of Sir2.1 in fat metabolism was shown in C. elegans worms in which Sir2.1 was RNA inactivated. Young adult worms were grown to adulthood in the presence of bacteria that carry RNAi vector alone or vector encoding Sir2.1 RNAi (R11A8.4), as described below. These worms were grown in the presence or absence of resveratrol, and stained with Nile-Red as described below.
We have examined the C. elegans database and found two gene products that are highly related to mammalian AMPK, TOC1.8 and Par2.3; five genes encoding homologs of CPT-1 and one gene encoding a homolog of COT. C. elegans worms were incubated with bacteria carrying RNAi vector alone, or interfering RNA against TOC1.8 or F41E7.3, a C. elegans homologue of COT in the presence or absence of AICAR. Fat accumulation was visualized with Nile-Red, as described below. […] Thus, AICAR/AMPK signaling to fatty acid oxidation is conserved in worms and mammalian cells.
The effect of TOC1.8 and COT inactivation was then investigated in C. elegans incubated with resveratrol. C. elegans worms were incubated with bacteria carrying RNAi vector alone, or a vector encoding TOC1.8 or COT interfering RNA in the presence or absence of resveratrol. Fat accumulation was visualized with Nile-Red, as described below.
RNAi plates were seeded with HTT5 E. coli carrying either the L4440 RNAi vector control or the specific RNAi clones T01C8.1, AMPK; R11A8.4, sir-2.1; or F41E7.6 COT in the presence or absence of 100 μM resveratrol. Young adults were transferred to plates containing the appropriate vector, Nile Red stain and drug then maintained at 25° C. Nile Red staining was assessed 24 hours after resveratrol treatment by UV microscopy.
HT115 E. Coli carrying the RNAi vector, L4440, were used for maintenance feeding. Bacteria containing experimental RNAi clones were cultured in 10 ml Luria Broth media containing 50 μg/ml ampicillin for 18 hours. 350 μl of each culture was spotted to a 60 mm dish containing NGM agar, 6 mM IPTG and 25 μg/ml carbenicillin. After overnight incubation (at room temp), Nile Red was added on top of each dish to a final concentration of 0.05 μg/ml along with the experimental compounds indicated in the figure legends. Nile Red staining was assessed after 24 hrs by UV microscopy. For each batch of RNAi clones tested, L4440 (vector alone) was included. […] All phenotypes were confirmed by at least three additional rounds of testing.

[1] = system: AMPK and ACC phosphorylation; test: Western blot of AMPK and ACC phosphorylation in mouse embryonic fibroblasts; type: cell-based; conditions: LKB1−/− cells; 50, 100, 200 μM
Procedure: Similar results were also observed in mouse embryonic fibroblast (MEFs). […] Cells in the left panel were incubated overnight without serum before harvesting; the cells on the right were not incubated under serum free conditions. […] Tubulin served as a loading control.

NIH3T3 cells = test: Adipocyte differentiation and fat content by Oil Red O staining, NIH3T3 cells; type: cell-based
Procedure: To obtain evidence that resveratrol affects fat metabolism in a physiologically relevant cell, we examined the effect of increasing concentrations of resveratrol on 3T3-L1 and NIH3T3 cell differentiation and fat content. 3T3-L1 or NIH3T3 cells were grown to confluence and allowed to pack in for 2 days at which point differentiation was initiated by addition of isobutylmethylxanthine, dexamethasone and insulin in the presence of vehicle (ethanol alone) or resveratrol at concentrations of 0, 12.5 and 25 μM. After 10 days of differentiation, fat content was assessed by Oil Red O staining, as described below. The results, which are shown in FIG. 12, indicate that concentrations of 25 μM or higher resveratrol decreased the quantity of cellular fat in 3T3-L1 and NIH3T3 cells. The results in NIH3T3 cells confirm the results obtained in C. elegans.
To further examine whether resveratrol activation of sir2 could promote fat mobilization or inhibition of differentiation in mammalian cells, we infected growing cells with wild-type SIRT1 or a deacetylase deficient form of SIRT1. […]
3T3-L1 and NIH3T3 cells were maintained in DMEM plus 10% calf serum. […] The staining of adipocytes with Oil Red-O and quantitation was performed as described previously (Ramirez-Zacarias J L, Castro-Munozledo F, Kuri-Harcuch W. Histochemistry. 1992 July; 97(6):493-7). […]

PPAR-γ = test: Expression of the adipogenic transcription regulator PPAR-γ in 3T3 cells; type: cell-based; conditions: cells exposed to resveratrol during differentiation
Source text: AICAR stimulates AMPK signaling and inhibits adipogenesis in 3T3 cells. To distinguish whether the effect of resveratrol was to inhibit differentiation or mobilize fat from 3T3 cells, we examined whether resveratrol inhibited the expression of adipogenic transcription regulators such as PPAR-γ.

SMILES: Oc1ccc(/C=C/c2cc(O)cc(O)c2)cc1 [resveratrol, 3,5,4′-Trihydroxy-trans-stilbene]
- fat mobilization (C. elegans worms; RNA inactivation of DAF-16, or inactivation of DAF-16 by mutation): had no effect on resveratrol-stimulated fat mobilization
- fat mobilization (C. elegans worms; RNA inactivation of TOC1.8 (AMPK homolog) or F41E7.3 (COT homolog)): blocks resveratrol-stimulated fat mobilization
- reduction of fat content (C. elegans worms; RNAi vector alone, 100 μM resveratrol, Nile Red assessed after 24 hours): 75%
- fat mobilization (C. elegans worms; Sir2.1 RNAi (R11A8.4)): did not show resveratrol induced fat mobilization
- AMPK and ACC phosphorylation [1]: still causes an upregulation of both AMPK and ACC phosphorylation
- concentrations that decreased the quantity of cellular fat (NIH3T3 cells; 10 days of differentiation, 0, 12.5 and 25 μM tested, Oil Red O): ≥ 25 µM
- decrease in fat content (NIH3T3 cells; cells expressing SIRT1 deacetylase deficient mutant (SIRT1ΔHY), 0, 12.5 or 25 μM, eight days): partially reduced
- PPAR-γ RNA / expression (PPAR-γ): did not show an increase in PPAR-γ RNA; also recorded: marked decrease in PPARγ expression
